{
  "source": "patent US20030216635A1",
  "about": "“Method and system for monitoring pancreatic pathologies” (priority 2000, published 2003)",
  "origin": "cited, not measured here",
  "details": "value substituted into equation 1.3; set up at 4.7 Tesla",
  "data": [
    {"compound": "O=C([O-])CN(CCN(CC(=O)[O-])CC(=O)O)CCN(CC(=O)[O-])CC(=O)O.[Gd+3]", "note": "[GdDTPA, gadolinium-diethylenetriamine-pentaacetic-acid]", "values": [
      {"measurement": "Relaxivity constant R", "result": 4.3, "unit": "mM^−1 sec ^−1"}
    ]}
  ]
}
